# From ChEMBL document CHEMBL4311992, “Discovery of 3-(((9H-purin-6-yl)amino)methyl)-4,6-dimethylpyridin-2(1H)-one derivatives as novel tubulin polymerization inhibitors for treatment of cancer” (Eur J Med Chem, 2019)
# pIC50: −log10 of the molar value. Calls of active or inactive are those of the source. The rule behind the calls is not given here.
# Tests used:
# [1] = molecular target: Serine/threonine-protein kinase 32A (Homo sapiens) (UniProt Q8WU08); experiment: Inhibition of recombinant full-length human STK32A assessed as residual activity at 10 uM using casein as substrate measured after 120 mins in presence of [gamma33P]ATP by scintillation counting method
# [2] = tested on: SW-620; experiment: Induction of apoptosis in human SW620 cells assessed as viable cells at 25 nM measured after 48 hrs by Annexin V-FITC/propidium iodide staining-based flow cytometry (reference value: 94.7%); assay type: functional; conditions: SW-620, 48 h, read-out: Activity
# [3] = tested on: Glycogen synthase kinase-3 beta (Homo sapiens), P49841 [UNDEFINED MUTATION]; experiment: Inhibition of recombinant human GSK3beta H350L mutant (2 to end residues) assessed as residual activity at 10 uM using phospho GS2 peptide as substrate measured after 40 mins in presence of [gamma33P]ATP by scintillation counting method
# [4] = molecular target: Cyclin-dependent kinase 5/CDK5 activator 1 (Homo sapiens) (UniProt Q00535+Q15078); experiment: Inhibition of recombinant full-length human CDK5/p25 assessed as residual activity at 10 uM using histone H1 as substrate measured after 40 mins in presence of [gamma33P]ATP by scintillation counting method; assay type: protein-complex assay
# [5] = molecular target: Serine/threonine-protein kinase Chk1 (Homo sapiens) (UniProt O14757); experiment: Inhibition of recombinant full length human CHK1 assessed as residual activity at 10 uM using KKKVSRSGLYRSPSMPENLNRPR as substrate measured after 40 mins in presence of [gamma33P]ATP by scintillation counting method
# [6] = molecular target: Serine/threonine-protein kinase WNK3 (Homo sapiens) (UniProt Q9BYP7); experiment: Inhibition of human WNK3 (1 to 434 residues) using myelin basic protein as substrate measured after 40 mins in presence of [gamma33P]ATP by scintillation counting method; design: scale not given: the % may be the effect or the level left
# [7] = molecular target: Protein kinase C epsilon type (Homo sapiens) (UniProt Q02156); experiment: Inhibition of recombinant human PKCepsilon (2 to end residues) assessed as residual activity at 10 uM using ERMRPRKRQGSVRRRV as substrate measured after 40 mins in presence of [gamma33P]ATP by scintillation counting method
# [8] = tested on: Mast/stem cell growth factor receptor Kit (Homo sapiens), P10721 [V560G]; experiment: Inhibition of recombinant human c-Kit V560G mutant (544 to end residues) assessed as residual activity at 10 uM using GGMEDIYFEFMGGKKK as substrate measured after 40 mins in presence of [gamma33P]ATP by scintillation counting method
# [9] = molecular target: Vascular endothelial growth factor receptor 1 (Homo sapiens) (UniProt P17948); experiment: Inhibition of recombinant human Flt1 (783 to end residues) assessed as residual activity at 10 uM using KKKSPGEYVNIEFG as substrate measured after 40 mins in presence of [gamma33P]ATP by scintillation counting method
# [10] = Toxicity in nude BALB/c mouse xenografted with human HCT116 cells assessed as change in body weight at 40 mg/kg, po administered once daily for 4 weeks measured every 3 days during compound dosing; assay type: organism-based; conditions: in vivo
# [11] = molecular target: Calcium/calmodulin-dependent protein kinase type II subunit gamma (Homo sapiens) (UniProt Q13555); experiment: Inhibition of recombinant full-length human CaMK2gamma (1 to 330 residues) assessed as residual activity at 10 uM using calmodulin as substrate measured after 40 mins in presence of [gamma33P]ATP by scintillation counting method
# [12] = tested on: HCT-15; experiment: Antiproliferative activity against human HCT15 cells assessed as reduction in cell viability after 72 hrs by MTT assay; assay type: functional, cell-based; conditions: HCT-15, 72 h
# [13] = species: Mus musculus; experiment: Inhibition of recombinant full-length mouse PI3K p110alpha/p85alpha E542K mutant assessed as residual activity at 10 uM using phosphatidylinositol-4, 5-bisphosphate as substrate measured after 40 mins by HTRF assay
# [14] = tested on: Tyrosine-protein kinase receptor UFO (Homo sapiens), P30530 [Q764R]; experiment: Inhibition of recombinant human AXL Q764R mutant (473 to end residues) assessed as residual activity at 10 uM using KKSRGDYMTMQIG as substrate measured after 40 mins in presence of [gamma33P]ATP by scintillation counting method
# [15] = molecular target: Dual specificity tyrosine-phosphorylation-regulated kinase 1A (Homo sapiens) (UniProt Q13627); experiment: Inhibition of recombinant full-length human DYRK1A assessed as residual activity at 10 uM using RRRFRPASPLRGPPK as substrate measured after 40 mins in presence of [gamma33P]ATP by scintillation counting method
# [16] = molecular target: Mitogen-activated protein kinase kinase kinase 7 (Homo sapiens) (UniProt O43318); experiment: Inhibition of human TAK1 (1 to 303 residues) using casein as substrate measured after 40 mins in presence of [gamma33P]ATP by scintillation counting method; design: scale not given: the % may be the effect or the level left
# [17] = molecular target: Tubulin (Homo sapiens) (UniProt P68371+Q9H4B7+P0DPH7+P68366+Q13509+Q71U36+P04350+Q3ZCM7+P07437+P68363+Q9BQE3+Q6PEY2+Q13885+Q9BVA1+Q9BUF5); experiment: Disruption of microtubule network in human SW620 cells assessed as microtubule disorganization at 50 nM for 18 hrs by FITC/DAPI staining-based confocal microscopic analysis; assay type: cell-based
# [18] = tested on: Serine/threonine-protein kinase D1 (Homo sapiens), Q15139 [UNDEFINED MUTATION]; experiment: Inhibition of recombinant full-length human PKCmu R135A mutant assessed as residual activity at 10 uM using KKLNRTLSVA as substrate measured after 40 mins in presence of [gamma33P]ATP by scintillation counting method
# [19] = molecular target: Macrophage-stimulating protein receptor (Homo sapiens) (UniProt Q04912); experiment: Inhibition of human Ron (983 to end residues) using GGMEDIYFEFMGGKKK as substrate measured after 40 mins in presence of [gamma33P]ATP by scintillation counting method; design: scale not given: the % may be the effect or the level left
# [20] = tested on: SW480; experiment: Antiproliferative activity against human SW480 cells assessed as reduction in cell viability after 72 hrs by MTT assay; assay type: functional, cell-based; conditions: SW480, 72 h
# [21] = molecular target: CDK3/Cyclin E (Homo sapiens) (UniProt P24864+Q00526); experiment: Inhibition of recombinant full-length human CDK3/cyclinE assessed as residual activity at 10 uM using histone H1 as substrate measured after 40 mins in presence of [gamma33P]ATP by scintillation counting method; assay type: protein-complex assay
# [22] = molecular target: Serine/threonine-protein kinase MRCK gamma (Homo sapiens) (UniProt Q6DT37); experiment: Inhibition of recombinant human MRCKgamma assessed as residual activity at 10 uM using KKRNRTLTV as substrate measured after 40 mins in presence of [gamma33P]ATP by scintillation counting method
# [23] = tested on: Epidermal growth factor receptor (Homo sapiens), P00533 [L858R,T790M]; experiment: Inhibition of recombinant human EGFR T790M/L858R mutant (696 to end residues) assessed as residual activity at 10 uM using GGMEDIYFEFMGGKKK as substrate measured after 40 mins in presence of [gamma33P]ATP by scintillation counting method
# Sequence of Serine/threonine-protein kinase WNK3 (Homo sapiens) (Q9BYP7 whole entry, the tested form may be a part): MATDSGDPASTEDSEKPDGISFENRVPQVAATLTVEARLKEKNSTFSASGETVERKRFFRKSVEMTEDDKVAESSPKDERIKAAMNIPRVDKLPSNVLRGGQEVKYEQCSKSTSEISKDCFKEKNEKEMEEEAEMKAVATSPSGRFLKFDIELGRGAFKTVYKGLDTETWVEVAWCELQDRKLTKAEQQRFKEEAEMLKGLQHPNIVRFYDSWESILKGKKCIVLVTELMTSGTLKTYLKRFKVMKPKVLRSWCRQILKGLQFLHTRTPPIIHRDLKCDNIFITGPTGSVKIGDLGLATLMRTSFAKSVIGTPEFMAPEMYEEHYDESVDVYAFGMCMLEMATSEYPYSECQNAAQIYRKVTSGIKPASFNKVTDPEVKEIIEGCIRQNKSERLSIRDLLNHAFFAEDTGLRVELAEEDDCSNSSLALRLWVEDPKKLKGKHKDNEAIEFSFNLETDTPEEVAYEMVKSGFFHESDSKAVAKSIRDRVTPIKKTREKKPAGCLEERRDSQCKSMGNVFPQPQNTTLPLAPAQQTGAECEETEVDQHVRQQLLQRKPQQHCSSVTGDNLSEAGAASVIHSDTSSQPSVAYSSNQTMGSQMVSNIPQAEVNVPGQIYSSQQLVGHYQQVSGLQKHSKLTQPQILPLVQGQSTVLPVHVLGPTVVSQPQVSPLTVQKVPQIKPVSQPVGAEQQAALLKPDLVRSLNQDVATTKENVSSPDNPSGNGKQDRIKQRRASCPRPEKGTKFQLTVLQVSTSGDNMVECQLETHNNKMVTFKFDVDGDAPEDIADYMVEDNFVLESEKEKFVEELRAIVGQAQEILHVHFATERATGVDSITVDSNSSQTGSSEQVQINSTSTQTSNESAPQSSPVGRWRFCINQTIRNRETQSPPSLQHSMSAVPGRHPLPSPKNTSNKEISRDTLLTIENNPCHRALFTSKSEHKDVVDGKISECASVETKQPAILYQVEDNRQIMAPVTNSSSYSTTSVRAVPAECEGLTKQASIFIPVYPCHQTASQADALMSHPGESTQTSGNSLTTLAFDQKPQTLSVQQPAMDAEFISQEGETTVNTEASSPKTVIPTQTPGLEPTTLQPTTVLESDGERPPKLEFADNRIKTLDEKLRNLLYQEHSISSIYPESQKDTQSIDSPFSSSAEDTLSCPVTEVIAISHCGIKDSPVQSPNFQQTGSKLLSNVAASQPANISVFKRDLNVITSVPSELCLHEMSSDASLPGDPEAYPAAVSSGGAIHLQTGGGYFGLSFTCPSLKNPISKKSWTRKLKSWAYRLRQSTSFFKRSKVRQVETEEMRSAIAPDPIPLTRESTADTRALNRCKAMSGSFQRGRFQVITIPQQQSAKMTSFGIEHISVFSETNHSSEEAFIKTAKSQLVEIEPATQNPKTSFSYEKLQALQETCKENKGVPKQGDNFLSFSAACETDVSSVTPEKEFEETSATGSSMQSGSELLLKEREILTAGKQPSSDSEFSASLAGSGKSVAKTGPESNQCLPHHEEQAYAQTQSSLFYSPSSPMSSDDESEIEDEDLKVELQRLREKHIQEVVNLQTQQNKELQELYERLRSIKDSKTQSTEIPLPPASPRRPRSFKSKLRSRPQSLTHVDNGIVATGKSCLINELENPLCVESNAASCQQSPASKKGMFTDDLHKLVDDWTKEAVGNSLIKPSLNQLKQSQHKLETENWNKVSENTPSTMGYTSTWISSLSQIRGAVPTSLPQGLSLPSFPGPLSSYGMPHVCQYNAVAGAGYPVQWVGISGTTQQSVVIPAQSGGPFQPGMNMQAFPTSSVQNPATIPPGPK
# Sequence of Serine/threonine-protein kinase MRCK gamma (Homo sapiens) (Q6DT37 whole entry): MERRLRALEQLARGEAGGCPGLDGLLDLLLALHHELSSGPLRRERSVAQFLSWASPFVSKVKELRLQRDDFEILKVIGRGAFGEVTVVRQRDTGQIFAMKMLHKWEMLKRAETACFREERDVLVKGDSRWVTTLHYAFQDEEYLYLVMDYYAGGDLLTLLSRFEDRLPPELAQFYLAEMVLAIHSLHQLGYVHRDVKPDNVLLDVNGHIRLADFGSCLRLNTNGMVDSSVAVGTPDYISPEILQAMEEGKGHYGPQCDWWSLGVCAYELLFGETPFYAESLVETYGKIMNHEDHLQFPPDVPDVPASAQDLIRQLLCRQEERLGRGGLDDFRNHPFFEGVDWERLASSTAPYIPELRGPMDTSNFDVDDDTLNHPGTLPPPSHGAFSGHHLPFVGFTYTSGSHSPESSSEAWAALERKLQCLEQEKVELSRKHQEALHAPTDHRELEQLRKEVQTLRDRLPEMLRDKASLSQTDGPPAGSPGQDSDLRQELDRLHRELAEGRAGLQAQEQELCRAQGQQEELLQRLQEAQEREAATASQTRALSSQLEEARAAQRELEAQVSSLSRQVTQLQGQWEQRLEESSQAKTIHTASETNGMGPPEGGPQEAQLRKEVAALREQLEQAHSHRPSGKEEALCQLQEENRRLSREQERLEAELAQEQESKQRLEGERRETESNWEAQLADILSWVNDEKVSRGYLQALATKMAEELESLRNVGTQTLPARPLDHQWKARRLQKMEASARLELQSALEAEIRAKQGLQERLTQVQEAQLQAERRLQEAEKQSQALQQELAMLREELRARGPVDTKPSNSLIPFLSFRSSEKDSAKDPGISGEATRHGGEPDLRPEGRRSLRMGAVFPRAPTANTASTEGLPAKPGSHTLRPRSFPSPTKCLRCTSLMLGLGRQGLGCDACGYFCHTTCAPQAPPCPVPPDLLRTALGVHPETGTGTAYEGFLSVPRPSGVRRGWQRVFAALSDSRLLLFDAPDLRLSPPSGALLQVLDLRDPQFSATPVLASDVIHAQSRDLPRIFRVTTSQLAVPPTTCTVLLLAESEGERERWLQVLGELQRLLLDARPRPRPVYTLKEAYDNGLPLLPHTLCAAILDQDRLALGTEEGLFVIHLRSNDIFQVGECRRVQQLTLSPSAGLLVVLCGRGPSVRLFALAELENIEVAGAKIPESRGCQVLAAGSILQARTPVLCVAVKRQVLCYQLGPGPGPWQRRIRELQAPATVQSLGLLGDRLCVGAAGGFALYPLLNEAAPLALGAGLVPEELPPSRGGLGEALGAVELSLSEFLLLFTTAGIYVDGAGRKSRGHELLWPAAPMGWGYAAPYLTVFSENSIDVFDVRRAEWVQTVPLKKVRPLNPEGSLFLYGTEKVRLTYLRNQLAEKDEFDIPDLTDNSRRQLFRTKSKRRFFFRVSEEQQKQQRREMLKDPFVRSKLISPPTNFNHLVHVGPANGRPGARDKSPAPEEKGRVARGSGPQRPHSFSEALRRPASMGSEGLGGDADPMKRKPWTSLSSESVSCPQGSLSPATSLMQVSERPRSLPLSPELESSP
# Sequence of Calcium/calmodulin-dependent protein kinase type II subunit gamma (Homo sapiens) (Q13555 whole entry, the tested form may be a part): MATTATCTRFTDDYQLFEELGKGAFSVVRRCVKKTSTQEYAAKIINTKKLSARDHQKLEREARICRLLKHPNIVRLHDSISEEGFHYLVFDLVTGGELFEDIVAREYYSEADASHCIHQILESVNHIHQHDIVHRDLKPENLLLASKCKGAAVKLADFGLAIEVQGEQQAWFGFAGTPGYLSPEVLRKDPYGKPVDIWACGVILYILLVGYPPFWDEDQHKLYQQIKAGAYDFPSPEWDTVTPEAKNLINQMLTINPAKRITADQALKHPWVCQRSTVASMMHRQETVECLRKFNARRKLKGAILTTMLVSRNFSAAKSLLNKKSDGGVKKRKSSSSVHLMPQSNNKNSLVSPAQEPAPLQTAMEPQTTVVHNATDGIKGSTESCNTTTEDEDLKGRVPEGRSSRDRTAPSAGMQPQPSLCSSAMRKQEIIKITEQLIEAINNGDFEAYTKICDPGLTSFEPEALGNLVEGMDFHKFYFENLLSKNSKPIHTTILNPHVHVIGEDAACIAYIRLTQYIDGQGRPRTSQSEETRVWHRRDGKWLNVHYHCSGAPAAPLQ
# Sequence of Serine/threonine-protein kinase Chk1 (Homo sapiens) (O14757 whole entry, the tested form may be a part): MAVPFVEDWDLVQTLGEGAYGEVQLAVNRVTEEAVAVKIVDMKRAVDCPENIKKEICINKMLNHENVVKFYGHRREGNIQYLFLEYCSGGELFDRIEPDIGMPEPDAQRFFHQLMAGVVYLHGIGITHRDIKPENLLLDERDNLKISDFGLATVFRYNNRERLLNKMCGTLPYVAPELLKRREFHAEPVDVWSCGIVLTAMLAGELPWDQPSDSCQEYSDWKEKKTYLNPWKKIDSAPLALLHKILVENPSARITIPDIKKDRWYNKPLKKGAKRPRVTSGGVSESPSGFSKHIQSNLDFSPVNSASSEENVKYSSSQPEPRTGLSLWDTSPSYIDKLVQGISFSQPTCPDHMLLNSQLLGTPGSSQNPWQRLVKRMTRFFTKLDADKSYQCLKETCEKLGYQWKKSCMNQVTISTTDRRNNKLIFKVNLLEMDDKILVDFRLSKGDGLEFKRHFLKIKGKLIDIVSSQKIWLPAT
# Sequence of Glycogen synthase kinase-3 beta (Homo sapiens), P49841 [UNDEFINED MUTATION] (P49841 whole entry, looked up, stated change not applied): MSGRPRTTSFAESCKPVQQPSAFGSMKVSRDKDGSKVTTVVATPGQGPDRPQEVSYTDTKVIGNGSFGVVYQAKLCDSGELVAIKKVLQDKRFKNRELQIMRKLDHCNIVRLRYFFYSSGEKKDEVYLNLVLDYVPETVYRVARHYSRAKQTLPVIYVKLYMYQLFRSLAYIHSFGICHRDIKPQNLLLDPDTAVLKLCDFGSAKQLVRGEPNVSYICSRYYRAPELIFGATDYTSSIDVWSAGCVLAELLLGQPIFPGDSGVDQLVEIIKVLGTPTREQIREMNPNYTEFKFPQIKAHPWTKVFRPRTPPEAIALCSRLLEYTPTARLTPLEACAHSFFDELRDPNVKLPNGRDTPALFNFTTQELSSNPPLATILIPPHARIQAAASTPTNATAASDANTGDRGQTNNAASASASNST
smiles,measurement,setting,value
Cc1cc(C)c(CNc2nc(Cl)nc3c2ncn3C2CCCC2)c(=O)[nH]1,Activity,[1],100%
same,viability at 0.025 µM,[2],61.8%
same,Activity,[3],112%
same,Activity,[4],94%
same,Activity,[5],106%
same,Activity,[6],136%
same,Activity,[7],95%
same,Activity,[8],95.5%
same,Activity,[9],97.5%
same,Activity,[10],Non-Toxic
same,Activity,[11],99.5%
same,pIC50,[12],7.21
same,Activity,[13],95%
same,Activity,[14],107%
same,Activity,[15],100%
same,Activity,[16],98.5%
same,Activity,[17],Active
same,Activity,[18],103%
same,Activity,[19],110%
same,pIC50,[20],7.19
same,Activity,[21],113%
same,Activity,[22],122%
same,Activity,[23],96.5%
